The values that follow come from ChEMBL document CHEMBL1201862, “PubChem BioAssay data set” (2004).

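96-well plates; 48 h exposure; 5 concentrations. Endpoints by linear interpolation between flanking doses. Not reached: highest tested concentration assigned. GI50 = concentration required for 50% inhibition of growth.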 The source made the active and inactive calls. Rule as the data show it: active = GI50 up to about 1.1 µM and inactive = higher.

Assay in all cases: NCI tumour cell line growth inhibition, 48 h
The subject of test [1] is OVCAR-8.
The subject of test [2] is MDA-MB-231.
Test [3] concerns OVCAR-5.
Test [4] deals with HOP-92.
Test [5] has as its system SR.
Test [6] has as its system HCC 2998.
The test system of test [7] is NCI-H460.
Test [8] concerns NCI-H23.
Test [9] has as its system SF-539.
For test [10], the system named is UACC-62.
Test [11] relates to HCT-15.
Test [12] has as its system Malme-3M.
The subject of test [13] is RPMI-8226.
The test system of test [14] is EKVX.
Test [15] deals with NCI-H226.
In test [16] the test system is T47D.
For test [17], the system named is SNB-75.
Test [18] has as its system NCI/ADR-RES.
In test [19] the test system is SK-MEL-2.

Regarding `O=C1C(Br)=C(c2ccccc2)O/C1=C/C(=O)c1ccc(Br)cc1`, the GI50 is 27 µM (inactive) in [1]; 34.8 µM (inactive) in test [2]; > 100 µM (inactive) in [3]; 49.1 µM (inactive) in test [4]; 27.5 µM (inactive) in [5]; > 100 µM (inactive) in test [6]. Also, the GI50 in [7] is > 100 µM (inactive); in test [8] it was > 100 µM (inactive); in [9] it was > 100 µM (inactive); in [10], 23.9 µM (inactive); in test [11], 89.9 µM; in test [12] it was 58.2 µM (inactive). Also, the GI50 is 19.1 µM (inactive) in test [13]; > 100 µM (inactive) in test [14]; > 100 µM (inactive) in test [15]; 32.9 µM (inactive) in test [16]; > 100 µM (inactive) in test [17].
On to `COc1ccc(/C(Nc2ccccc2)=C(\CCl)c2ccccc2)cc1OC`, for which the GI50 was 35.2 µM (inactive) in [1]; 50.4 µM (inactive) in [2]; > 100 µM (inactive) in test [3]; 37.6 µM (inactive) in [4]; 32.1 µM (inactive) in test [18]; 48.1 µM (inactive) in test [6]. For the same compound, the GI50 in test [7] is 41.8 µM (inactive); in [8], 45.9 µM (inactive); in test [9] it was > 100 µM (inactive); in test [10] it was 99.1 µM (inactive); in test [11], 40.7 µM; in test [12], 37.2 µM (inactive). The GI50 in test [13] is 21.2 µM (inactive); in test [14] it was 24.3 µM (inactive); in test [19] it was 24.1 µM (inactive); in test [15], 30.9 µM (inactive); in test [16], 35.5 µM (inactive); in [17] it was 63.2 µM (inactive).
For `O=C(C1OC1c1ccc(F)cc1)C12CC3CC(CC(C3)C1)C2` (stereo unspecified), the GI50 was 14.4 µM (inactive) in test [1]; 26.5 µM (inactive) in [2]; 19.6 µM (inactive) in test [3]; 20.3 µM (inactive) in [4]; 21.2 µM (inactive) in [18]; 20.1 µM (inactive) in [6]. Further, the GI50 in test [7] is 13.3 µM (inactive); in [8], 22.1 µM (inactive); in test [9], 21.2 µM (inactive); in test [10] it was 15.2 µM (inactive); in test [11], 15.5 µM; in test [12], 21.3 µM (inactive). Further, the GI50 in test [14] is 19.3 µM (inactive); in test [19], 12.9 µM (inactive); in test [15] it was 20.2 µM (inactive); in [16], 25.1 µM (inactive); in test [17] it was 31 µM (inactive).
`CC(=O)c1cn(-c2ccc(Cl)cc2)c(=O)c2c(N)n[nH]c12`: the GI50 in test [1], in test [2], in [18], in test [5], in [6] and in [7] was > 100 µM (inactive) in each case. For the same compound, the GI50 in test [8] is > 100 µM (inactive); in test [10] it was 41.7 µM (inactive); in test [11] it was over 100 µM; in [13] it was > 100 µM (inactive); in test [14], > 100 µM (inactive); in test [19], > 100 µM (inactive). Further, the GI50 in test [15], in test [16] and in [17] was > 100 µM (inactive) throughout.
Consider `OCCOCn1nncc1Cn1ncc2c(SCc3ccccc3)ncnc21`, for which the GI50 in [1] is 64 µM (inactive); in test [2], > 100 µM (inactive); in [3], > 100 µM (inactive); in [4] it was 80.9 µM (inactive); in [18], > 100 µM (inactive); in [6] it was > 100 µM (inactive). For the same compound, the GI50 in [7] is > 100 µM (inactive); in [8] it was > 100 µM (inactive); in test [9] it was 65 µM (inactive); in test [10], > 100 µM (inactive); in [11], 57.3 µM; in [12] it was > 100 µM (inactive). For the same compound, the GI50 in test [14] is > 100 µM (inactive); in test [19], > 100 µM (inactive); in test [15] it was > 100 µM (inactive); in [16], 80.2 µM (inactive); in [17] it was 60.4 µM (inactive).
For the compound `CC1(C)C2CCC1(CC(=O)O)C(Cl)C2` (stereo unspecified), the GI50 in test [1], in test [2], in [3], in [18], in test [6] and in [7] was > 100 µM (inactive) throughout. Besides, the GI50 was > 100 µM (inactive) in test [8]; > 100 µM (inactive) in [9]; > 100 µM (inactive) in test [10]; over 100 µM in [11]; > 100 µM (inactive) in test [12]; > 100 µM (inactive) in [13]. Further, the GI50 in test [14], in test [19], in test [15], in [16] and in test [17] was > 100 µM (inactive) throughout.
In the case of `CC(C)(C)O/C=C1/C(=O)OC2C[C@@H](O[Si](C)(C)C(C)(C)C)CC12` (stereo partly specified), the GI50 was 48.1 µM (inactive) in test [1]; > 100 µM (inactive) in test [2]; > 100 µM (inactive) in [3]; 43.7 µM (inactive) in [4]; 55.1 µM (inactive) in test [18]; > 100 µM (inactive) in test [6]. Besides, the GI50 in [7] is 79.8 µM (inactive); in test [8], 39.7 µM (inactive); in [11], 49.3 µM; in test [12] it was 98.9 µM (inactive); in [14], > 100 µM (inactive); in test [19], > 100 µM (inactive). Moreover, the GI50 is 92.7 µM (inactive) in test [15], 23.3 µM (inactive) in test [16] and 16.8 µM (inactive) in test [17].
In the case of `CC1OC(O)C(O)C(O)C1O` (stereo unspecified), the GI50 in test [1], in [2], in test [3], in test [4], in test [18] and in test [7] was > 100 µM (inactive) each time. Also, the GI50 in test [8] is > 100 µM (inactive); in test [9] it was > 100 µM (inactive); in test [10], > 100 µM (inactive); in test [11] it was over 100 µM; in test [12], > 100 µM (inactive); in test [13], > 100 µM (inactive). Besides, the GI50 in test [14], in [19], in [15], in test [16] and in test [17] was > 100 µM (inactive) in each case.
In the case of `COc1cccc2c1OC(c1ccc(Cl)cc1)C([N+](=O)[O-])=C2` (stereo unspecified), the GI50 in test [1] was 1.93 µM (inactive); in test [2], 3.52 µM (inactive); in test [3] it was 2.79 µM (inactive); in test [18] it was 3.79 µM (inactive); in test [5], 0.538 µM (active); in test [7] it was 1.58 µM (inactive). Further, the GI50 was 3.77 µM (inactive) in test [8]; 1.74 µM (inactive) in test [10]; 1.81 µM in test [11]; 1.87 µM (inactive) in [12]; 1.52 µM (inactive) in test [13]; 11.7 µM (inactive) in [14]. The GI50 in test [16] is 2.34 µM (inactive).
